Measured values taken from PubChem BioAssay (NCI).
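Five compound concentrations were applied to cells in 96-well plates for 48 hours; endpoints were derived by simple linear interpolation of the resulting dose-response curve. TGI: concentration producing complete growth inhibition.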 Where a SMILES comes first, the peptide text is derived from it. [ ]: non-standard residue; d: D form. Ac5c = NC1(C(=O)O)CCCC1

Tests used:
Test in all cases: growth of human tumour cells (NCI), 48 h
786-0 renal = test system: 786-0 renal
A549 NSCLC = test system: A549 NSCLC
ACHN renal = test system: ACHN renal
CCRF-CEM leukemia = test system: CCRF-CEM leukemia
COLO 205 colon = test system: COLO 205 colon
EKVX NSCLC = test system: EKVX NSCLC
HCC-2998 colon = test system: HCC-2998 colon
HCT-116 colon = test system: HCT-116 colon
HCT-15 colon = test system: HCT-15 colon
HL-60(TB) leukemia = test system: HL-60(TB) leukemia
HOP-62 NSCLC = test system: HOP-62 NSCLC
HS 578T breast = test system: HS 578T breast
HT29 colon = test system: HT29 colon
IGROV1 ovarian = test system: IGROV1 ovarian
K-562 leukemia = test system: K-562 leukemia
KM12 colon = test system: KM12 colon
M14 melanoma = test system: M14 melanoma
MCF7 breast = test system: MCF7 breast
MDA-MB-231 breast = test system: MDA-MB-231 breast
MDA-MB-435 = test system: MDA-MB-435
MDA-N = test system: MDA-N
MOLT-4 leukemia = test system: MOLT-4 leukemia
NCI-H460 lung = test system: NCI-H460 lung
NCI-H522 lung = test system: NCI-H522 lung
OVCAR-8 ovarian = test system: OVCAR-8 ovarian
PC-3 prostate = test system: PC-3 prostate
RPMI-8226 leukemia = test system: RPMI-8226 leukemia
SF-268 CNS = test system: SF-268 CNS
SF-295 CNS = test system: SF-295 CNS
SF-539 CNS = test system: SF-539 CNS
SK-MEL-28 melanoma = test system: SK-MEL-28 melanoma
SK-MEL-5 melanoma = test system: SK-MEL-5 melanoma
SK-OV-3 ovarian = test system: SK-OV-3 ovarian
SN12C renal = test system: SN12C renal
SNB-19 CNS = test system: SNB-19 CNS
SNB-75 CNS = test system: SNB-75 CNS
SR leukemia = test system: SR leukemia
SW-620 colon = test system: SW-620 colon
T-47D breast = test system: T-47D breast
TK-10 renal = test system: TK-10 renal
UACC-257 melanoma = test system: UACC-257 melanoma
UO-31 renal = test system: UO-31 renal
A498 renal = test system: A498 renal
BT-549 breast = test system: BT-549 breast
CAKI-1 renal = test system: CAKI-1 renal
DU-145 prostate = test system: DU-145 prostate
HOP-92 NSCLC = test system: HOP-92 NSCLC
LOX IMVI melanoma = test system: LOX IMVI melanoma
MALME-3M melanoma = test system: MALME-3M melanoma
NCI-H226 lung = test system: NCI-H226 lung
NCI-H23 lung = test system: NCI-H23 lung
NCI/ADR-RES ovarian = test system: NCI/ADR-RES ovarian
OVCAR-3 ovarian = test system: OVCAR-3 ovarian
OVCAR-4 ovarian = test system: OVCAR-4 ovarian
OVCAR-5 ovarian = test system: OVCAR-5 ovarian
RXF 393 renal = test system: RXF 393 renal
SK-MEL-2 melanoma = test system: SK-MEL-2 melanoma
U251 CNS = test system: U251 CNS
UACC-62 melanoma = test system: UACC-62 melanoma

Measured: TGI

COC(=O)C1(NC(=O)C(C)NC(=O)C(CCCCN)NC(=O)C(CC(C)C)NC(C)=O)CCCC1 (stereo not drawn) (Ac-LKA[Ac5c]-OMe; configuration not given here)
not listed: A498 renal | BT-549 breast | CAKI-1 renal | DU-145 prostate | HOP-92 NSCLC | LOX IMVI melanoma | MALME-3M melanoma | NCI-H226 lung | NCI-H23 lung | NCI/ADR-RES ovarian | OVCAR-3 ovarian | OVCAR-4 ovarian | OVCAR-5 ovarian | RXF 393 renal | SK-MEL-2 melanoma | U251 CNS | UACC-62 melanoma
> 100 µM: all other assays above

CCOC(=O)/C(C#N)=C/c1ccc(SCc2ccco2)c([N+](=O)[O-])c1
not listed: HCT-15 colon | T-47D breast | TK-10 renal
> 100 µM: all other assays above
